From ChEMBL document CHEMBL1201861, “Genomics of Drug Sensitity in Cancer screening data, Wellcome Trust Sanger Institute”

How the values were obtained:
Experiment in all cases: cells
[1] = system: COR-L105; format: functional, cell-based; conditions: Homo sapiens;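 note: cell growth inhibition determined with a viability assay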
Description: SANGER: Inhibition of human COR-L105 cell growth in a cell viability assay.

[2] = system: Ca9-22; format: functional, cell-based; conditions: Homo sapiens;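 note: growth inhibition of Ca9-22 cells, read out with a cell viability assay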
Description: SANGER: Inhibition of human Ca9-22 cell growth in a cell viability assay.

[3] = system: ChaGo-K-1; format: functional, cell-based; conditions: Homo sapiens;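 note: growth inhibition of ChaGo-K-1 cells, read out with a cell viability assay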
Description: SANGER: Inhibition of human ChaGo-K-1 cell growth in a cell viability assay.

[4] = system: DMS-273; format: functional, cell-based; conditions: Homo sapiens
Description: SANGER: Inhibition of human DMS-273 cell growth in a cell viability assay.

[5] = system: EB-3; format: functional, cell-based, Homo sapiens; conditions: Homo sapiens, EB-3;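 note: human EB-3 cells, growth inhibition read out via a cell viability assay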
Description: SANGER: Inhibition of human EB-3 cell growth in a cell viability assay.

[6] = system: ESS-1; format: functional, cell-based; conditions: Homo sapiens;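 note: growth inhibition of human ESS-1 cells, read out by a cell viability assay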
Description: SANGER: Inhibition of human ESS-1 cell growth in a cell viability assay.

[7] = system: G-361; format: functional, cell-based; conditions: Homo sapiens
[8] = system: G-402; format: functional, cell-based; conditions: Homo sapiens
Description: SANGER: Inhibition of human G-402 cell growth in a cell viability assay.

[9] = system: HSC-2; format: functional, cell-based; conditions: Homo sapiens;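 note: growth inhibition of human HSC-2 cells, read out by a cell viability assay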
Description: SANGER: Inhibition of human HSC-2 cell growth in a cell viability assay.

[10] = system: HT-1376; format: functional, cell-based; conditions: Homo sapiens
Description: SANGER: Inhibition of human HT-1376 cell growth in a cell viability assay.

[11] = system: HTC-C3; format: functional, cell-based; conditions: Homo sapiens;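 note: inhibition of cell growth, read out with a cell viability assay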
Description: SANGER: Inhibition of human HTC-C3 cell growth in a cell viability assay.

[12] = system: HuTu80; format: functional, cell-based, Homo sapiens, HUTU-80; conditions: Homo sapiens, HuTu80;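 note: growth inhibition of HuTu80 human cells, determined with a cell viability readout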
Description: SANGER: Inhibition of human HUTU-80 cell growth in a cell viability assay.

[13] = system: HuO-3N1; format: functional, cell-based; conditions: Homo sapiens;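 note: cell viability readout used to measure how strongly compounds suppress proliferation of human HuO-3N1 cells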
Description: SANGER: Inhibition of human HuO-3N1 cell growth in a cell viability assay.

[14] = system: IMR-5; format: functional, cell-based, Homo sapiens; conditions: Homo sapiens, IMR-5; read-out: IC50;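 note: growth inhibition of human IMR-5 cells, read out with a cell viability assay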
Description: SANGER: Inhibition of human IMR-5 cell growth in a cell viability assay.

[15] = system: KARPAS-422; format: functional, cell-based, Homo sapiens; conditions: Homo sapiens, KARPAS-422
Description: SANGER: Inhibition of human KARPAS-422 cell growth in a cell viability assay.

[16] = system: KMS-12-PE; format: functional, cell-based, Homo sapiens; conditions: Homo sapiens, KMS-12-PE;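 note: growth inhibition of human KMS-12-PE cells, measured with a cell viability assay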
Description: SANGER: Inhibition of human KMS-12-PE cell growth in a cell viability assay.

[17] = system: KYSE-270; format: functional, cell-based; conditions: Homo sapiens;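 note: cell growth inhibition measured with a viability assay in the human KYSE-270 line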
Description: SANGER: Inhibition of human KYSE-270 cell growth in a cell viability assay.

[18] = system: LB373-MEL-D; format: functional, cell-based, Homo sapiens; conditions: Homo sapiens, LB373-MEL-D;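 note: growth inhibition of the cell line, read out in a cell viability assay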
Description: SANGER: Inhibition of human LB373-MEL-D cell growth in a cell viability assay.

[19] = system: LU-165; format: functional, cell-based, Homo sapiens; conditions: Homo sapiens, LU-165
Description: SANGER: Inhibition of human LU-165 cell growth in a cell viability assay.

[20] = system: LoVo; format: functional, cell-based; conditions: Homo sapiens;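 note: growth inhibition of human LoVo cells, read out with a cell viability assay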
Description: SANGER: Inhibition of human LoVo cell growth in a cell viability assay.

[21] = system: MC-IXC; format: functional, cell-based; conditions: Homo sapiens;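 note: growth inhibition of MC-IXC cells, read out with a cell viability assay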
Description: SANGER: Inhibition of human MC-IXC cell growth in a cell viability assay.

[22] = system: MFH-ino; format: functional, cell-based, Homo sapiens; conditions: Homo sapiens, MFH-ino;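 note: growth inhibition of human MFH-ino cells, read out by a cell viability assay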
Description: SANGER: Inhibition of human MFH-ino cell growth in a cell viability assay.

[23] = system: MKN-1; format: functional, cell-based; conditions: Homo sapiens;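 note: growth inhibition of human MKN1 cells, read out by a cell viability measurement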
Description: SANGER: Inhibition of human MKN1 cell growth in a cell viability assay.

[24] = system: MeWo; format: functional, cell-based; conditions: Homo sapiens;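 note: growth inhibition of MeWo cells, determined by a cell viability readout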
Description: SANGER: Inhibition of human Mewo cell growth in a cell viability assay.

[25] = system: NB12; format: functional, cell-based; conditions: Homo sapiens;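 note: growth inhibition of human NB12 cells, read out by a cell viability assay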
Description: SANGER: Inhibition of human NB12 cell growth in a cell viability assay.

[26] = system: NCI-H1755; format: functional, cell-based; conditions: Homo sapiens;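 note: cell viability readout used to measure growth inhibition of NCI-H1755 cells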
Description: SANGER: Inhibition of human NCI-H1755 cell growth in a cell viability assay.

[27] = system: NCI-H2030; format: functional, cell-based; conditions: Homo sapiens;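 note: growth inhibition of human NCI-H2030 cells, read out by a cell viability assay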
Description: SANGER: Inhibition of human NCI-H2030 cell growth in a cell viability assay.

[28] = system: NCI-H2228; format: functional, cell-based; conditions: Homo sapiens;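 note: growth inhibition of human NCI-H2228 cells, read out by a cell viability assay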
Description: SANGER: Inhibition of human NCI-H2228 cell growth in a cell viability assay.

[29] = system: NCI-H2342; format: functional, cell-based; conditions: Homo sapiens;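 note: growth inhibition of the cancer cell line, determined with a cell viability assay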
Description: SANGER: Inhibition of human NCI-H2342 cell growth in a cell viability assay.

[30] = system: NCI-H650; format: functional, cell-based; conditions: Homo sapiens;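 note: growth inhibition of NCI-H650 cells, read out by a viability assay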
Description: SANGER: Inhibition of human NCI-H650 cell growth in a cell viability assay.

[31] = system: NCI-H716; format: functional, cell-based, Homo sapiens; conditions: Homo sapiens, NCI-H716;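 note: growth inhibition of human NCI-H716 cells, measured by a cell viability assay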
Description: SANGER: Inhibition of human NCI-H716 cell growth in a cell viability assay.

[32] = system: NCI-H810; format: functional, cell-based; conditions: Homo sapiens;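 note: IC50 reflects inhibition of cancer cell line growth, read out with a cell viability assay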
Description: SANGER: Inhibition of human NCI-H810 cell growth in a cell viability assay.

[33] = system: NCI-H889; format: functional, cell-based, Homo sapiens; conditions: Homo sapiens, NCI-H889;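 note: cell growth inhibition of the cell line, read out with a viability assay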
Description: SANGER: Inhibition of human NCI-H889 cell growth in a cell viability assay.

[34] = system: OAW-28; format: functional, cell-based; conditions: Homo sapiens;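 note: growth inhibition of OAW-28 cells, read out with a cell viability assay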
Description: SANGER: Inhibition of human OAW-28 cell growth in a cell viability assay.

[35] = system: OVCAR-5; format: functional, cell-based; conditions: Homo sapiens;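 note: growth inhibition of human OVCAR-5 cells, read out with a cell viability assay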
Description: SANGER: Inhibition of human OVCAR-5 cell growth in a cell viability assay.

[36] = system: P31-FUJ; format: functional, cell-based, Homo sapiens; conditions: Homo sapiens, P31-FUJ;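 note: growth inhibition of P31-FUJ cells, read out with a viability assay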
Description: SANGER: Inhibition of human P31-FUJ cell growth in a cell viability assay.

[37] = system: RD; format: functional, cell-based; conditions: Homo sapiens
Description: SANGER: Inhibition of human RD cell growth in a cell viability assay.

[38] = system: SCC-25; format: functional, cell-based; conditions: Homo sapiens;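 note: growth inhibition of SCC-25 cells, measured with a cell viability assay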
Description: SANGER: Inhibition of human SCC-25 cell growth in a cell viability assay.

[39] = system: SK-HEP1; format: functional, cell-based, SK-HEP-1; conditions: Homo sapiens;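 note: cell viability readout used to quantify reduction in proliferation of human SK-HEP-1 cells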
Description: SANGER: Inhibition of human SK-HEP-1 cell growth in a cell viability assay.

[40] = system: SK-LU-1; format: functional, cell-based; conditions: Homo sapiens;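 note: cell viability assay measuring growth inhibition of human SK-LU-1 cells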
Description: SANGER: Inhibition of human SK-LU-1 cell growth in a cell viability assay.

[41] = system: SK-MEL-28; format: functional, cell-based; conditions: Homo sapiens;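 note: growth inhibition of human SK-MEL-28 cells, read out with a cell viability assay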
Description: SANGER: Inhibition of human SK-MEL-28 cell growth in a cell viability assay.

[42] = system: SNU-387; format: functional, cell-based; conditions: Homo sapiens
Description: SANGER: Inhibition of human SNU-387 cell growth in a cell viability assay.

[43] = system: SNU-423; format: functional, cell-based; conditions: Homo sapiens
Description: SANGER: Inhibition of human SNU-423 cell growth in a cell viability assay.

[44] = system: SW1088; format: functional, cell-based; conditions: Homo sapiens;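 note: growth inhibition of human SW1088 cells, read out by a cell viability assay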
Description: SANGER: Inhibition of human SW1088 cell growth in a cell viability assay.

[45] = system: SW13; format: functional, cell-based; conditions: Homo sapiens;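 note: IC50 is inhibition of SW13 cell growth, read out with a cell viability assay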
Description: SANGER: Inhibition of human SW13 cell growth in a cell viability assay.

[46] = system: SW1463; format: functional, cell-based; conditions: Homo sapiens;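 note: growth inhibition of SW1463 cells, determined with a cell viability assay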
Description: SANGER: Inhibition of human SW1463 cell growth in a cell viability assay.

[47] = system: SW1783; format: functional, cell-based; conditions: Homo sapiens;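 note: cell growth inhibition measured with a viability assay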
Description: SANGER: Inhibition of human SW1783 cell growth in a cell viability assay.

[48] = system: SW-620; format: functional, cell-based; conditions: Homo sapiens;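 note: growth inhibition of human SW-620 cells, measured by a cell viability assay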
Description: SANGER: Inhibition of human SW620 cell growth in a cell viability assay.

[49] = system: CWR22R; format: functional, cell-based; conditions: Homo sapiens, 22Rv1;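 note: growth inhibition of 22Rv1 cells, read out with a cell viability assay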
Description: SANGER: Inhibition of human 22RV1 cell growth in a cell viability assay.

[50] = system: ACHN; format: functional, cell-based; conditions: Homo sapiens;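 note: cell viability read-out used to gauge how strongly growth of human ACHN cells is suppressed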
Description: SANGER: Inhibition of human ACHN cell growth in a cell viability assay.

[51] = system: BHY; format: functional, cell-based; conditions: Homo sapiens;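 note: cell growth inhibition read out by a viability assay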
Description: SANGER: Inhibition of human BHY cell growth in a cell viability assay.

[52] = system: BXPC-3; format: functional, cell-based; conditions: Homo sapiens;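 note: growth inhibition of human BxPC-3 cells, read out by a cell viability assay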
Description: SANGER: Inhibition of human BxPC-3 cell growth in a cell viability assay.

[53] = system: CAL-72; format: functional, cell-based; conditions: Homo sapiens;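 note: cell viability assay measuring inhibition of proliferation in the CAL-72 cell line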
Description: SANGER: Inhibition of human CAL-72 cell growth in a cell viability assay.

[54] = system: WM-115; format: functional, cell-based; conditions: Homo sapiens
Description: SANGER: Inhibition of human WM-115 cell growth in a cell viability assay.

[55] = system: WSU-NHL; format: functional, cell-based, Homo sapiens; conditions: Homo sapiens, WSU-NHL;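 note: growth inhibition of human WSU-NHL cells, read out with a cell viability assay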
Description: SANGER: Inhibition of human WSU-NHL cell growth in a cell viability assay.

[56] = system: YT; format: functional, cell-based, Homo sapiens; conditions: Homo sapiens, YT
Description: SANGER: Inhibition of human YT cell growth in a cell viability assay.

[57] = system: CAMA-1; format: functional, cell-based; conditions: Homo sapiens;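 note: growth inhibition of CAMA-1 cells, read out with a cell viability assay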
Description: SANGER: Inhibition of human CAMA-1 cell growth in a cell viability assay.

[58] = system: CAPAN-1; format: functional, cell-based; conditions: Homo sapiens;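 note: growth suppression of CAPAN-1 cells, read out by a cell viability assay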
Description: SANGER: Inhibition of human CAPAN-1 cell growth in a cell viability assay.

[59] = system: CHP-212; format: functional, cell-based; conditions: Homo sapiens
Description: SANGER: Inhibition of human CHP-212 cell growth in a cell viability assay.

[60] = system: MDA-MB-231; format: functional, cell-based; conditions: Homo sapiens
Description: SANGER: Inhibition of human MDA-MB-231 cell growth in a cell viability assay.

Measured: IC50

Cc1ccc(C(=O)Nc2ccc(CN3CCN(C)CC3)c(C(F)(F)F)c2)cc1C#Cc1cnc2cccnn12 [PONATINIB]
312 nM: [27]
163 nM: [31]
63.4 nM: [8]
334 nM: [39]
186 nM: [29]
293 nM: [50]
315 nM: [40]
478 nM: [6]
444 nM: [44]
270 nM: [56]
350 nM: [52]
not listed: [60]
> 512 nM: all other assays above

NC(=O)c1ccc(N(C(N)=O)c2c(F)cccc2F)nc1-c1ccc(F)cc1F [VX-702]
1500 nM: [7]
not listed: [5] | [14] | [15] | [16] | [19] | [31] | [33] | [36] | [55] | [56]
> 2000 nM: all other assays above
